Test results from the supplement of paper PMC11208160.

Experiment: recombinant barcode read abundance after kanamycin selection (control-corrected) (log10(CPM+1)); higher = more efficient recombination; sequences stand for … in AGTGCAGAGAAAATCGGCCAGTTTTCTCTGCCTGCAGTCCGCATGCCGT…AGATTTATGCAGCGGACTGCCTTTCTCCCAAAGTGATAAACCGGACAGTATCATGGACCGGTTTTCCCGGTAATCCGTATTTGCAAGGTTGGTTTCACT; site = the 11-nt target
Summary of the method: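 Reported as log10(CPM+1), each value stands for recombination efficiency. That efficiency is the averaged, control-corrected counts per million of barcodes found at recombinant junctions. Cells from a pooled E. coli library pairing targets with IS621 bridge RNA target-binding loops were plated twice on chloramphenicol/ampicillin LB agar (control) and twice on chloramphenicol/ampicillin/kanamycin with 0.1 mM IPTG.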
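Also: IS621 recombinase and bridge RNA in Escherichia coli cells.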

Sequence	recombinant barcode read abundance (log10)
CAATGCTCTTGGGTTCTAACCTGTTGCCT (site CAGTGCTCTTG)	0.113
CAATGGACTTGGGTTCTAACCTGTTGCCT (site CAATGGACTAG)	1.12
CAATGGACTTGGGTTCTAACCTGTTGCCT (site CACTGGACTAG)	0.0334
CAATGGACTTGGGTTCTAACCTGTTGCCT (site CAGTGGACTAG)	0.106
CAATGGACTTGGGTTCTAACCTGTTGCCT (site CATTGGACTAG)	0.103
CAATGGTCTTGGGTTCTAACCTGTTGCTT (site CAATGGTCTAA)	1.86
CAATGGTCTTGGGTTCTAACCTGTTGCTT (site CAATGGTCTAC)	1.64
CAATGGTCTTGGGTTCTAACCTGTTGCTT (site CAATGGTCTAG)	1.07
CAATGGTCTTGGGTTCTAACCTGTTGCTT (site CAATGGTCTAT)	1.14
CAATTTCCTTGGGTTCTAACCTGTTGCAT (site CAATTTCCTAT)	0.322
CAATTTCCTTGGGTTCTAACCTGTTGCAT (site GCCAGCTCTCA)	0.0829
CACACGACTTGGGTTCTAACCTGTTGCTT (site CACACGACTAA)	0.496
CACACGACTTGGGTTCTAACCTGTTGCTT (site TGGTTACCTCC)	0.0367
CACACGCCTTGGGTTCTAACCTGTTGCCT (site CACACGCCTAG)	0.278
CACACGCCTTGGGTTCTAACCTGTTGCCT (site CTCACGCCTAA)	0.0913
CACATATCTTGGGTTCTAACCTGTTGCAT (site CACATATCTAT)	1.49
CACATATCTTGGGTTCTAACCTGTTGCAT (site CACATCTCTAG)	0.123
CACCAATCTTGGGTTCTAACCTGTTGCCT (site CACCAATCTAG)	0.525
CACCAATCTTGGGTTCTAACCTGTTGCCT (site CACGCATCTAG)	0.269
CACCAGCCTTGGGTTCTAACCTGTTGCAT (site AGGTCCGCTTA)	0.167
CACCAGCCTTGGGTTCTAACCTGTTGCAT (site CACCAGCCTAT)	1.98
CACCCCTCTTGGGTTCTAACCTGTTGCCG (site ATGAGGACTAC)	0.0851

Sequence	recombinant barcode read abundance (log10)
CACCCCTCTTGGGTTCTAACCTGTTGCCG (site CACCCCTCTCG)	2.44
CACCGTCCTTGGGTTCTAACCTGTTGCAT (site CACCGTCCTAC)	0.0846
CACCGTCCTTGGGTTCTAACCTGTTGCAT (site CACCGTCCTAT)	1.61
CACCTGTCTTGGGTTCTAACCTGTTGCCG (site CACCTGACTCG)	0.151
CACCTGTCTTGGGTTCTAACCTGTTGCCG (site CACCTGTCTCG)	1.94
CACGCGTCTTGGGTTCTAACCTGTTGCTG (site CACGCGTCTCA)	0.746
CACGCGTCTTGGGTTCTAACCTGTTGCTG (site CACGCTTCTTA)	0.0288
CACGCTCCTTGGGTTCTAACCTGTTGCGT (site ACTTGAGCTCT)	0.119
CACGCTCCTTGGGTTCTAACCTGTTGCGT (site CACGCTCCTAC)	0.656
CACGGGTCTTGGGTTCTAACCTGTTGCTT (site CACGGGTCTAA)	2.32
CACGGGTCTTGGGTTCTAACCTGTTGCTT (site CTCCGGTCTAA)	0.209
CACTACCCTTGGGTTCTAACCTGTTGCTT (site AGGCCGTCTCC)	0.0811
CACTACCCTTGGGTTCTAACCTGTTGCTT (site CACTACCCTAA)	1.24
CACTATCCTTGGGTTCTAACCTGTTGCGG (site CACTAGCCTCC)	0.0909
CACTATCCTTGGGTTCTAACCTGTTGCGG (site CACTATCCTCC)	1.5
CACTCACCTTGGGTTCTAACCTGTTGCGG (site CACTCACCTCC)	1.38
CACTCACCTTGGGTTCTAACCTGTTGCGG (site CACTTAGCTCC)	0.0338
CACTCTCCTTGGGTTCTAACCTGTTGCCT (site CACTCTCCTAG)	0.226
CACTCTCCTTGGGTTCTAACCTGTTGCCT (site CACTCTCCTAT)	0.00896
CACTTAGCTTGGGTTCTAACCTGTTGCGG (site CACTCACCTCC)	0.0176
CACTTAGCTTGGGTTCTAACCTGTTGCGG (site CACTTAGCTCC)	1.28
CACTTCCCTTGGGTTCTAACCTGTTGCCT (site CACTTCCCTAA)	0.191

Sequence	recombinant barcode read abundance (log10)
CACTTCCCTTGGGTTCTAACCTGTTGCCT (site CACTTCCCTAC)	0.0709
CACTTCCCTTGGGTTCTAACCTGTTGCCT (site CACTTCCCTAG)	0.924
CACTTCCCTTGGGTTCTAACCTGTTGCCT (site CACTTCCCTAT)	0.0298
CACTTCCCTTGGGTTCTAACCTGTTGCTT (site CACTTCCCTAA)	1.04
CACTTCCCTTGGGTTCTAACCTGTTGCTT (site CACTTCCCTAC)	0.0814
CACTTCCCTTGGGTTCTAACCTGTTGCTT (site CACTTCCCTAG)	0.442
CACTTCCCTTGGGTTCTAACCTGTTGCTT (site CACTTCCCTAT)	0.443
CACTTGTCTTGGGTTCTAACCTGTTGCCA (site CACTTGTCTTG)	0.0547
CACTTGTCTTGGGTTCTAACCTGTTGCCA (site TATTTGTCTTG)	0.0129
CAGAAGTCTTGGGTTCTAACCTGTTGCTT (site ACACGTGCTTC)	0.0609
CAGAAGTCTTGGGTTCTAACCTGTTGCTT (site CAGAAGTCTAA)	1.44
CAGAATACTTGGGTTCTAACCTGTTGCGT (site CAAAATTCTAC)	0.215
CAGAATACTTGGGTTCTAACCTGTTGCGT (site CAGAATACTAC)	2.24
CAGAGAGCTTGGGTTCTAACCTGTTGCCT (site CAGAGAGCTAG)	1.2
CAGAGAGCTTGGGTTCTAACCTGTTGCCT (site CCGAGAGCTAG)	0.0663
CAGAGAGCTTGGGTTCTAACCTGTTGCCT (site CGGAGAGCTAG)	0.0978
CAGAGAGCTTGGGTTCTAACCTGTTGCCT (site CTGAGAGCTAG)	0.132
CAGAGCTCTTGGGTTCTAACCTGTTGCCT (site CAGAGCTCTAG)	1.43
CAGAGCTCTTGGGTTCTAACCTGTTGCCT (site CAGAGGTCTAG)	0.309
CAGAGTCCTTGGGTTCTAACCTGTTGCCT (site CAGAGTCCTAG)	1.26
CAGAGTCCTTGGGTTCTAACCTGTTGCCT (site CAGAGTCCTAT)	0.3
CAGATCCCTTGGGTTCTAACCTGTTGCCT (site CAGATCCCTAG)	1.91

Sequence	recombinant barcode read abundance (log10)
CAGATCCCTTGGGTTCTAACCTGTTGCCT (site CCGATCCCTAG)	0.0889
CAGATCCCTTGGGTTCTAACCTGTTGCCT (site CGGATCCCTAG)	0.0247
CAGATCCCTTGGGTTCTAACCTGTTGCCT (site CTGATCCCTAG)	0.0156
CAGATGACTTGGGTTCTAACCTGTTGCCT (site CAAATTACTAG)	0.393
CAGATGACTTGGGTTCTAACCTGTTGCCT (site CAGATGACTAG)	1.52
CAGCCGTCTTGGGTTCTAACCTGTTGCGG (site CAATCGTCTCC)	0.0473
CAGCCGTCTTGGGTTCTAACCTGTTGCGG (site CAGCCGTCTCC)	1.09
CAGCGAGCTTGGGTTCTAACCTGTTGCCG (site CAACGAGCTCG)	0.21
CAGCGAGCTTGGGTTCTAACCTGTTGCCG (site CACCGAGCTCG)	0.117
CAGCGAGCTTGGGTTCTAACCTGTTGCCG (site CAGCGAGCTCG)	0.737
CAGCGAGCTTGGGTTCTAACCTGTTGCCG (site CATCGAGCTCG)	0.0483
CAGGAGACTTGGGTTCTAACCTGTTGCCT (site CAGGAGACTAG)	1.63
CAGGAGACTTGGGTTCTAACCTGTTGCCT (site TAGGAGACTGG)	0.0578
CAGGCGACTTGGGTTCTAACCTGTTGCCT (site CAGGCGACTAG)	0.0758
CAGGCGACTTGGGTTCTAACCTGTTGCCT (site CAGGCGCCTAG)	0.556
CAGGCGACTTGGGTTCTAACCTGTTGCCT (site CAGGCGGCTAG)	0
CAGGCGACTTGGGTTCTAACCTGTTGCCT (site CAGGCGTCTAG)	0.394
CAGGGGACTTGGGTTCTAACCTGTTGCAC (site CAGGGGACTGT)	2.38
CAGGGGACTTGGGTTCTAACCTGTTGCAC (site TCCAACCCTAA)	0.0666
CAGGGTTCTTGGGTTCTAACCTGTTGCCT (site CAGGGTTCTAG)	2.18
